Reference: patent EP4389751A1, “HETEROCYCLIC COMPOUNDS AND USES THEREOF” (Kumquat Biosciences Inc., priority 2021, dated 2024)
pIC50: −log10 of the molar value.

What was measured:
A549 cells = assay: Cell proliferation assay (CellTiter-Glo), K-Ras G12S cells; format: cell-based; conditions: Homo sapiens, A549, A549 cells (K-Ras G12S); bin ≤ 500 nM; read-out: Inhibition of A549 Cells (IC50)
Outline: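 A549 cells (K-Ras G12S) in RPMI-1640 with 10% FBS, seeded in standard or ultra-low-attachment plates and dosed next day with a 10-point 3-fold series. Viability read about 6 days later by CellTiter-Glo luminescence. IC50 from four-parameter fit.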

[1] = target: T1, KRAS protein (His-tagged GDP-loaded G12S 1-169) (Homo sapiens, UniProt P01116, G12S); assay: Covalent modification of KRAS protein, intact-protein LC-MS; format: binding; conditions: 24hrs at room temperature, KRAS protein ~2 µM
T1 construct: His-tagged GDP-loaded G12S 1-169
Outline: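 Percent covalent modification derives from deconvoluted intact-mass intensities of compound-adducted versus unmodified KRAS, measured by LC-ESI-MS. Before analysis, ~2 µM GDP-loaded His-KRAS 1-169 was exposed to compound for 24 h at room temperature and acidified with formic acid.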

GP2D cells = assay: Cell proliferation assay (CellTiter-Glo), K-Ras G12D cells; format: cell-based; conditions: GP2D cells (K-Ras G12D); read-out: Inhibition of GP2D Cells (IC50)
Outline: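 CellTiter-Glo luminescence, taken roughly 5 days after dosing, measured growth of G12D-mutant GP2D cells in DMEM/2 mM glutamine/10% FBS. Compound dilution series (e.g., 9 points, 3-fold) added the day after plating. Four-parameter fitting gave IC50.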

pIC50 (A549 cells): ≥ 6.30
SMILES: Cc1nc(C)n(C(=O)N2CC3(COCCN(c4nc(OC[C@@]56CCCN5C[C@H](F)C6)nc5c(F)c(-c6ccc(F)c7sc(N)c(C#N)c67)c(Cl)cc45)C3)C2)n1 [Compound A185, 2-amino-4-(6-chloro-4-(2-(3,5-dimethyl-1H-1,2,4-triazole-1-carbonyl)-6-oxa-2,9-diazaspiro[3.6]decan-9-yl)-8-fluoro-2-(((2R,7aS)-2-fluorotetrahydro-1H-pyrrolizin-7a(5H)-yl)methoxy)quinazolin-7-yl)-7-fluorobenzo[b]thiophene-3-carbonitrile]
% G12S Modification at 24 hr. [1]: ++ (++ indicates between about 1%- 20% labelling) | pIC50 (GP2D cells): 5.00 to 6.00
